Measured values published in patent US20080032952A1, “Combination Therapies Employing Nicotinic Acid Derivatives or Fibric Acid Derivatives” (priority 2004, published 2008).

Test system: patients who underwent percutaneous coronary intervention (PCI)
Type: in vivo
Description: Data collection and statistical analyses—Patients who received ≧1 dose of the study drug and underwent PCI were analyzed for all primary and secondary efficacy and safety end points. […] Statistical tests were 2-sided with an a level of 0.05 and employed the intent-to-treat principle. The Wilcoxon rank-sum test was used. Due to small sample sizes, categorical variables were compared using the Fisher's exact test with the exception of the ST-segment monitoring data, which utilized the Pearson's chi-square test. Statistical analyses were performed using SAS version 8.2 (SAS Institute, Cary, N.C.).

Structure (SMILES): Cc1ncc(COP(=O)(O)O)c(C=O)c1O [P5P, pyridoxal 5′-phosphate]
- median periprocedural CK-MB area under the curve (periprocedural infarct size) (10 mg/kg oral ≧4 hours before PCI, then 5 mg/kg twice daily, CK-MB over 24 hours, p=0.038 vs placebo): 18.6 ng/mL
- rate of post-PCI ischemia (continuous ST monitoring within 24 hours after PCI, p=0.78 vs placebo): 14.7%
